Results on 20 molecules are retold here after patent publication US20250195452A1, “ER-BETA ESTROGENIC COMPOUNDS AND METHODS OF USE” (laterion, Inc., priority 2022, published 2025).

Entries after “also recorded” stand apart in the source; their conditions may differ.

One data set addresses T1, ERα (Homo sapiens, UniProt P03372).
T1 construct: expressed in transfected cells; host or cells: U2OS
T1 sequence (P03372 1-595): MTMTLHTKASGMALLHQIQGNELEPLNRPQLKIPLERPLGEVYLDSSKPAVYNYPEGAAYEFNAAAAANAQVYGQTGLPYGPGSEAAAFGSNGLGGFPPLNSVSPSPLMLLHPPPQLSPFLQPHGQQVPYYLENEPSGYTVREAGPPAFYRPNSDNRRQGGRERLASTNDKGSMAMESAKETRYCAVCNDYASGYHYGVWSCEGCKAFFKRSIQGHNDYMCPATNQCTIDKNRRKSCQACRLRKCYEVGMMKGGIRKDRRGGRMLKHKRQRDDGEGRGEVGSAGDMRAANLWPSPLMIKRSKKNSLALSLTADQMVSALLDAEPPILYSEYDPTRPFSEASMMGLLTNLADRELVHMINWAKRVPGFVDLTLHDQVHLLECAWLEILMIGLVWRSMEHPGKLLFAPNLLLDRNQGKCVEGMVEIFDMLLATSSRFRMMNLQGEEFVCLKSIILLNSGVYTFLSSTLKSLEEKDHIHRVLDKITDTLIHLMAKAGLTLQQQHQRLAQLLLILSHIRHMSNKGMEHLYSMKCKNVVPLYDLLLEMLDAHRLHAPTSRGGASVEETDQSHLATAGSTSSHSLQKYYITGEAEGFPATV
The data set is described as follows: Luciferase activity of ligands on the activation of the NKG2E ERE in U2OS-ERα cells. In kind it is cell-based. The note with it: for Activity in ERα U2OS cells: indicated micromolar concentrations, 24 hours; for Activation of ERα (NKG2E ERE luciferase activity): U2OS-ERα cells. The text has this:
(§1) U2OS cells (wild type) were maintained in 5% charcoal-dextran stripped FBS.

The next data set addresses T2, ERβ (Homo sapiens, UniProt Q92731).
T2 construct: expressed in transfected cells; host or cells: U2OS
The data set is described as follows: Luciferase activity in U2OS cells transfected with NKG2E-TK-Luc and ERβ. In kind it is cell-based. Particulars: 200 nM. The protocol:
as §1
Luciferase activity for each of the tested compounds was recorded.

Another data set has as its system GRE-TK-Luk, GR, and ERβ. In words: Luciferase activity in GRE-TK-Luc-transfected U2OS-ERβ cells with doxycycline and hydrocortisone. The note with it: HC 100 nM; compounds at 0.5, 1, 2.5 and 5 μM; doxycycline. In kind it is cell-based. The protocol:
Example 12: Luciferase Activity in GRE-TK-Luc-Transfected U2OS-ERβ cells with doxycycline. Doxycycline-dependent U2OS cells were transfected with GRE-TK-Luk, GR, and ERβ in the presence of hydrocortisone (HC, 100 nM) alone or in combination with Liquiritigenin, A10, A13, and A15. Luciferase activity for each of the compounds at 0.5, 1, 2.5 and 5 μM concentration was recorded.

Data set [1] has as its system MCF-7 breast cancer cells. In words: Effects of ERβ compounds on breast cancer tumor formation (histology, FIG. 16A-B). The format is in vivo. Particulars: in comparison to estradiol.
Data set [2] is described as follows: Effects of ERβ compounds on uterine weight (histology, FIG. 16A-B). In kind it is in vivo. Particulars: in comparison to estradiol. The text has this: Example 11: Effects of ERβ compounds on uterine and breast cancer cells.

T2 sequence (Q92731 whole entry): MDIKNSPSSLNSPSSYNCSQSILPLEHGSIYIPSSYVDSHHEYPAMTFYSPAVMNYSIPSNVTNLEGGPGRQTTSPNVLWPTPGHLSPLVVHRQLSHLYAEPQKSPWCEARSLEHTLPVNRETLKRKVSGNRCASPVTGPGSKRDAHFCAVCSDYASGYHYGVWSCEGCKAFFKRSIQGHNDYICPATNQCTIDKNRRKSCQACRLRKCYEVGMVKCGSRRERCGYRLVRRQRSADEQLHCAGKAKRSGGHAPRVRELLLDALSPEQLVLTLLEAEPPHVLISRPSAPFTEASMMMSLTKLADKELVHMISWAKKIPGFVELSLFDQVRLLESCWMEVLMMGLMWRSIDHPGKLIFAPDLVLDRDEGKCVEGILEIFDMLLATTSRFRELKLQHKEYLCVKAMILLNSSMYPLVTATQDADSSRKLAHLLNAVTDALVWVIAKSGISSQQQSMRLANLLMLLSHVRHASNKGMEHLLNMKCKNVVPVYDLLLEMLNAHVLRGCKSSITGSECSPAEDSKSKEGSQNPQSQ

Regarding `O=c1c(O)c(-c2ccc(O)cc2)oc2ccccc12` [3,4′-Dihydroxyflavone], the “Activity in ERα U2OS cells” value at ERα is on record as “little or no activity”.

As for `O=c1cc(-c2ccc(O)cc2)oc2cccc(O)c12` [5,4′-Dihydroxyflavone], on ERβ, the “Activation of ERβ (NKG2E-TK-Luc luciferase activity)” value (from here on “Activation of ERβ”) is recorded as “activate ERβ”. Besides, the “Activity in ERα U2OS cells” value on ERα is “little or no activity”.

On to `O=c1cc(-c2ccc(O)cc2)oc2ccc(O)cc12` [6,4′-Dihydroxyflavone], for which the “Activation of ERβ” value at ERβ is “activate ERβ”. Besides, the “Activation of ERα (NKG2E ERE luciferase activity)” value (“Activation of ERα” below) at ERα (1 μM) is given as “activate ERα”. In addition, the “Activity in ERα U2OS cells” value at ERα was “little or no activity”.

Turning to `COc1c(O)cc2oc(-c3ccc(O)c(O)c3)cc(=O)c2c1O` [6-methoxyluteolin], the “Activity in ERα U2OS cells” value on ERα was “little or no activity”.

For the molecule `O=c1cc(-c2ccccc2O)oc2cc(O)ccc12` [7,2′-Dihydroxyflavone], at ERα, the “Activity in ERα U2OS cells” value is recorded as “little or no activity”.

On to `O=c1cc(-c2cccc(O)c2)oc2cc(O)ccc12` [7,3′-Dihydroxyflavone], for which the “Activity in ERα U2OS cells” value on ERα is reported as “little or no activity”.

For the molecule `O=c1cc(-c2ccc(O)cc2)oc2cc(O)ccc12` [7,4′-Dihydroxyflavone], at ERβ, the “Activation of ERβ” value was “activate ERβ”. Besides, the “Activation of ERα” value on ERα (5 μM) is “activate ERα”. Moreover, the “Activity in ERα U2OS cells” value at ERα is “little or no activity”.

Turning to `O=C(/C=C/c1cccc(O)c1)c1ccc(O)c(O)c1O` [A10, (E)-3-(3-hydroxyphenyl)-1-(2,3,4-trihydroxyphenyl) prop-2-en-1-one], the “Effect on hydrocortisone (HC) induced luciferase activity” value (“Effect on hydrocortisone” for short) in the data set on GRE-TK-Luk, GR, and ERβ is on record as “attenuated the effect of HC”.

For the molecule `O=C(/C=C/c1ccc(O)cc1)c1ccccc1` [A15, (E)-3-(4-hydroxyphenyl)-1-phenylprop-2-en-1-one], the “Effect on hydrocortisone” value with GRE-TK-Luk, GR, and ERβ is recorded as “attenuated the effect of HC”.

For `O=C(/C=C/c1ccc(O)cc1)c1ccc(O)cc1` [Analog 13, (E)-1,3-bis(4-hydroxyphenyl) prop-2-en-1-one], in the data set with GRE-TK-Luk, GR, and ERβ, the “Effect on hydrocortisone” value is “attenuated the effect of HC”. Moreover, on ERβ, the “Activation of ERβ” value was “activate ERβ”. The “Activation of ERα” value at ERα (5 μM) is reported as “activate ERα”.

Turning to `O=c1cc(-c2ccc(O)cc2)oc2cc(O)cc(O)c12` [Apigenin], the “Activation of ERβ” value at ERβ is “activate ERβ”.

As to `COc1ccc(-c2coc3cc(O)ccc3c2=O)cc1O` [Calycosin], the “Breast cancer tumor formation” value in data set [1] (listed as IATERB6) is recorded as “do not increase uterine weight or cause breast cancer tumor formation; also recorded: do not increase uterine breast cancer tumor formation”. Moreover, the “Activity in ERα U2OS cells” value on ERα was “little or no activity”. In addition, the Uterine weight entry in data set [2] is listed as “do not increase uterine weight”.

As for `Oc1ccc([C@H]2COc3cc(O)ccc3C2)cc1` [Equol], the “Activation of ERα” value on ERα (1 μM) was “activate ERα”. At ERα, the “Activity in ERα U2OS cells” value is “little or no activity”.

For the molecule `O=c1c(O)c(-c2ccccc2)oc2cc(O)cc(O)c12` [Galangin], the “Activity in ERα U2OS cells” value at ERα is given as “little or no activity”.

Turning to `O=C1C[C@@H](c2ccc(O)cc2)Oc2cc(O)ccc21` [Liquiritigenin], in data set [1] (listed as IATERB7), the “Breast cancer tumor formation” value was “do not increase uterine weight or cause breast cancer tumor formation; also recorded: do not increase uterine breast cancer tumor formation”. Further, the “Effect on hydrocortisone” value in the data set with GRE-TK-Luk, GR, and ERβ is given as “attenuated the effect of HC”. Further, the “Activation of ERα” value on ERα (5 μM) is listed as “activate ERα”. Further, the “Activity in ERα U2OS cells” value on ERα was “little or no activity”. Besides, the Uterine weight entry in data set [2] was “do not increase uterine weight”.

For `O=c1cc(-c2ccc(O)c(O)c2)oc2cc(O)cc(O)c12` [Luteolin], the “Activity in ERα U2OS cells” value on ERα is reported as “little or no activity”.

Turning to `O=C1C[C@@H](c2ccc(O)cc2)Oc2cc(O)cc(O)c21` [Naringenin], the “Activation of ERβ” value at ERβ is given as “activate ERβ”. In addition, the “Activity in ERα U2OS cells” value at ERα is recorded as “little or no activity”.

`C=C[C@H](/C=C\c1ccc(O)cc1)c1ccc(O)cc1` [Nyasol]: in data set [1] (listed as IATERB5), the “Breast cancer tumor formation” value is reported as “do not increase uterine weight or cause breast cancer tumor formation; also recorded: do not increase uterine breast cancer tumor formation”. The “Activation of ERβ” value at ERβ is reported as “activate ERβ”. On ERα (1 μM), the “Activation of ERα” value was “activate ERα”. Besides, on ERα, the “Activity in ERα U2OS cells” value was “little or no activity”. Besides, in data set [2], the Uterine weight entry is “do not increase uterine weight”.

For the molecule `COc1c(O)cc(O)c2c(=O)cc(-c3ccccc3)oc12` [Wogonin], the “Activity in ERα U2OS cells” value at ERα is “little or no activity”.

Regarding Broussonin A, the “Activation of ERα” value on ERα (1 μM) was “activate ERα”. In addition, the “Activity in ERα U2OS cells” value on ERα is listed as “little or no activity”.
